Drawing on ChEMBL document CHEMBL5316327, “Design and Synthesis of Orally Active Quinolyl Pyrazinamides as Sigma 2 Receptor Ligands for the Treatment of Pancreatic Cancer” (J Med Chem, 2023), this text covers Ki, t1/2 and IC50 for 41 molecules.

For series [1], the target named is Sigma non-opioid intracellular receptor 1 (Homo sapiens, UniProt Q99720). Put plainly: Displacement of [3H](+)-pentazocine from human sigma 1 receptor transfected in human HEK293T cells assessed as inhibition constant by radioligand competition binding assay. Type of series: cell-based. In general terms: In a radioligand displacement assay an active substance lowers the binding of a labelled ligand.

Series [2] deals with Sigma intracellular receptor 2 (Homo sapiens, UniProt Q5BJF2). Put plainly: Displacement of [3H][…]ditolylguanidine from human sigma 2 receptor transfected in human HEK293T cells assessed as inhibition constant by radioligand competition binding assay. Type of series: cell-based.
Series [3] in a line: Metabolic stability in mouse liver microsomes assessed as half life at 10 uM measured upto 60 mins in presence of NADPH by LC-MS/MS analysis. Type of series: ADME, Microsome. The note with it: 1 h. (Liver microsomes are a subcellular fraction often used to study metabolism.)
The test system of the next series is MIA PaCa-2. Put plainly: cells. To be noted: Homo sapiens, MIA PaCa-2, 72 h.
Series [4] can be described thus: Metabolic stability in human liver microsomes assessed as half life at 10 uM measured upto 60 mins in presence of NADPH by LC-MS/MS analysis. It is filed as ADME, Microsome. To be noted: microsomes, 1 h, 10 µM.

Each structure is given as a SMILES string. pIC50, pKi: −log10 of the molar value.

Chain of Sigma intracellular receptor 2 (Q5BJF2 whole entry): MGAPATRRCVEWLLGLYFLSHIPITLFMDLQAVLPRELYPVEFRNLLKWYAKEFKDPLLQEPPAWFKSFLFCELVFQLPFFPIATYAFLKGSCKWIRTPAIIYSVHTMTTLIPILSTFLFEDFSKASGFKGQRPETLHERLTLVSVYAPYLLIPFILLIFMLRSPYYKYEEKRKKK
Chain of Sigma non-opioid intracellular receptor 1 (Q99720 whole entry): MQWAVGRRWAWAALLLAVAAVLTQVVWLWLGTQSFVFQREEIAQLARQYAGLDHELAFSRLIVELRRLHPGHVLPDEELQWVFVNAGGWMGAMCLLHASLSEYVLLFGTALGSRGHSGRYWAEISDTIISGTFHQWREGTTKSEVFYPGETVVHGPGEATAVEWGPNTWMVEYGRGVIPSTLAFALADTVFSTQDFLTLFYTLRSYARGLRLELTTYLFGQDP

In general, pKi refers to −log10 of the Ki, conventionally taken in molar units. Broadly, the pIC50 is −log10 of the IC50, conventionally taken in molar units. Low readings indicate a large IC50, high ones a small IC50. As for `CCN(CC)CCCC(C)Nc1cnc(C(=O)Nc2cc(C)cc3cccnc23)cn1` (stereo not given), the pKi in series [1] was 6.60; in series [2], 7.07. Also, the t1/2 in series [3] is 21 min. The same molecule gave a pIC50 in the series on MIA PaCa-2 of 5.96.

Consider `CCN(CC)CCCC(C)Nc1cnc(C(=O)Nc2cccc3cc(Cl)cnc23)cn1` (stereo not given), for which the pKi in series [1] is 6.81; in series [2], 7.29. The same molecule had a pIC50 with MIA PaCa-2 of 5.42.

Turning to `CCN(CC)CCCC(C)Nc1cnc(C(=O)Nc2c(C)ccc3cccnc23)cn1` (stereo not given), the pKi in series [2] is 5.57. In the series on MIA PaCa-2, this molecule showed a pIC50 below 4.52.

Take `O=C(Nc1cc(F)cc2cccnc12)c1cnc(NCCN2CCCC2)cn1`: the pKi in series [1] was 6.68; in series [2], 6.78. For the same molecule, in the series with MIA PaCa-2, the negative logarithm of the IC50 (pIC50) is 5.70.

Consider `CCN(CC)CCCC(C)Nc1cnc(C(=O)Nc2ccc(OC)c3cccnc23)cn1` (stereo not given), for which the values for the pKi in series [1] and in series [2] were 6.50 and 7.40, respectively. Further, the pIC50 in the series on MIA PaCa-2 is 5.17.

`CCN(CC)CCCC(C)Nc1cnc(C(=O)Nc2ccc(C)c3cccnc23)cn1` (stereo not given): the pKi was 6.40 in series [1] and 7.38 in series [2]. The pIC50 with MIA PaCa-2 is 5.77.

Take `COCCNc1cnc(C(=O)Nc2cc(F)cc3cccnc23)cn1`: the pIC50 in the series on MIA PaCa-2 was 5.92.

Turning to `CCN(CC)CCCC(C)Nc1cnc(C(=O)Nc2cc(O)cc3cccnc23)cn1` (stereo not given), the pKi is 5.89 in series [1] and 6.34 in series [2]. This molecule gave a pIC50 with MIA PaCa-2 of 5.10.

For `O=C(Nc1cc(F)cc2cccnc12)c1cnc(NS(=O)(=O)CCC(F)(F)F)cn1`, the pIC50 in the series with MIA PaCa-2 was below 4.52.

As to `CN(C)CCCNc1cnc(C(=O)Nc2cc(F)cc3cccnc23)cn1`, the results for the pKi in series [1] and in series [2] were 6.96 and 6.98, respectively. The pIC50 with MIA PaCa-2 is 5.62.

Regarding `Cc1cc(NC(=O)c2cnc(OC3CCNCC3)cn2)c2ncccc2c1`, the pKi in series [1] was 6.47; in series [2] it was 6.87. The pIC50 in the series on MIA PaCa-2 is 5.19.

As for `CCN(CC)CCCC(C)Nc1cnc(C(=O)Nc2cccc3ccc(C)nc23)cn1` (stereo not given), the values for the pKi in series [1] and in series [2] were 6.63 and 7.36, respectively. This molecule gave a pIC50 in the series with MIA PaCa-2 of 5.00.

Regarding `CCN(CC)CCCC(C)Nc1cnc(C(=O)Nc2ccc(OC)c3ccc(OC)nc23)cn1` (stereo not given), the pKi in series [1] is 6.88; in series [2], 7.15. The molecule further had a negative-log IC50 (pIC50) in the series with MIA PaCa-2 of 5.54.

With `CCN(CC)CCCC(C)Nc1cnc(C(=O)Nc2cccc3c(Cl)ccnc23)cn1` (stereo not given), the pKi in series [1] was 7.23; in series [2] it was 7.70. Besides, the pIC50 with MIA PaCa-2 is 5.47.

On to `CCN(CC)CCCC(C)Nc1cnc(C(=O)Nc2cc(F)c(Cl)c3cccnc23)cn1` (stereo not given), for which the pKi in series [1] is 6.91; in series [2] it was 7.55. In the series on MIA PaCa-2, this molecule had a pIC50 of 5.41.

Regarding `Cc1cc(NC(=O)c2cnc(NCCN3CCNCC3)cn2)c2ncccc2c1`, the results for the pKi in series [1] and in series [2] were 6.17 and 6.40, respectively. This molecule also gave a pIC50 in the series on MIA PaCa-2 of 4.81.

Regarding `CCN(CC)CCCC(C)Nc1cnc(CNc2cc(F)cc3cccnc23)cn1` (stereo not given), the pKi in series [1] was 5.84; in series [2], 7.19. The pIC50 in the series with MIA PaCa-2 was below 4.52.

With `CCN(CC)CCCC(C)Nc1cnc(C(=O)Nc2cccc3ccc(Cl)nc23)cn1` (stereo not given), the pKi in series [1] is 7.08; in series [2], 7.92. The same molecule had a pIC50 in the series on MIA PaCa-2 of 5.31.

As to `CCN(CC)CCCC(C)Nc1ccc(S(=O)(=O)Nc2cc(F)cc3cccnc23)nc1` (stereo not given), the pKi was 6.73 in series [1] and 7.42 in series [2]. Further, the t1/2 in series [3] was 15 min; in series [4] it was 39.2 min. For the same molecule, the pIC50 in the series with MIA PaCa-2 was 5.42.

`CCN(CC)CCCC(C)Nc1cnc(C(=O)Nc2c(OC)ccc3cccnc23)cn1` (stereo not given): in series [2], the pKi was 5.79. The same molecule showed a pIC50 in the series on MIA PaCa-2 below 4.52.

`CC(C)CS(=O)(=O)Nc1cnc(C(=O)Nc2cc(F)cc3cccnc23)cn1` showed a pIC50 in the series with MIA PaCa-2 below 4.52.

Regarding `CCN(CC)CCCC(C)Nc1cnc(C(=O)Nc2cc(Br)cc3cccnc23)cn1` (stereo not given), the pKi is 7.34 in series [1] and 7.57 in series [2]. Further, the pIC50 in the series on MIA PaCa-2 was 5.80.

As to `CCN(CC)CCCC(C)Nc1cnc(C(=O)Nc2cc(C#N)cc3cccnc23)cn1` (stereo not given), the pKi in series [1] was 6.39; in series [2] it was 6.97. This molecule gave a pIC50 with MIA PaCa-2 of 5.00.

For the molecule `O=C(CCNc1cnc(C(=O)Nc2cc(F)cc3cccnc23)cn1)NO`, in the series on MIA PaCa-2, the pIC50 is 4.70.

Regarding `CCN(CC)CCCC(C)NCC(=O)Nc1cc(C)cc2cccnc12` (stereo not given), the pKi in series [1] was 6.33; in series [2], 7.28. The negative logarithm of the IC50 (pIC50) with MIA PaCa-2 is below 4.52.

In the case of `CCN(CC)CCCC(C)Nc1cnc(C(=O)Nc2cc(Cl)cc3cccnc23)cn1` (stereo not given), the pKi was 7.02 in series [1] and 7.85 in series [2]. This molecule had a pIC50 with MIA PaCa-2 of 5.74.

`CCN(CCO)CCCC(C)Nc1cnc(C(=O)Nc2cc(C)cc3cccnc23)cn1` (stereo not given): the pKi in series [1] was 6.80; in series [2] it was 7.15. The pIC50 in the series with MIA PaCa-2 was 5.02.

In the case of `CCN(CC)CCCC(C)Nc1cnc(C(=O)Nc2cc(C3CC3)cc3cccnc23)cn1` (stereo not given), the pKi in series [1] is 7.15; in series [2], 7.57. Also, in the series with MIA PaCa-2, the pIC50 is 5.52.

Consider `CCN(CC)CCCC(C)Nc1cnc(C(=O)Nc2cc(C)c(Cl)c3cccnc23)cn1` (stereo not given), for which the pKi in series [1] is 7.17; in series [2] it was 7.44. The pIC50 in the series on MIA PaCa-2 is 5.49.

For the molecule `Cc1cc(NC(=O)c2cnc(S(=O)(=O)NCCN(C)C)cn2)c2ncccc2c1`, the pKi is 6.29 in series [1] and 5.67 in series [2]. In addition, the t1/2 in series [3] is listed as 6 min. Moreover, the pIC50 with MIA PaCa-2 was 6.22.

In the case of `CCN(CC)CCCC(C)Nc1cnc(C(=O)Nc2cc(C(F)(F)F)cc3cccnc23)cn1` (stereo not given), the pKi in series [1] was 6.41; in series [2], 6.81. The molecule also gave a pIC50 in the series on MIA PaCa-2 of 5.31.

On to `CCN(CC)CCCC(C)Nc1cnc(C(=O)Nc2ccc(Cl)c3ccc(OC)nc23)cn1` (stereo not given), for which the pKi in series [1] is 6.45; in series [2], 7.10. For the same molecule, the pIC50 in the series with MIA PaCa-2 was 5.27.

`CN(C)CCNc1cnc(C(=O)Nc2cc(F)cc3cccnc23)cn1`: the figures for the pKi in series [1] and in series [2] were 6.20 and 6.33, respectively. In the series on MIA PaCa-2, this molecule had a pIC50 of 5.85.

In the case of `CCN(CC)CCCC(C)Nc1cnc(C(=O)Nc2cccc3cc(C)cnc23)cn1` (stereo not given), the results for the pKi in series [1] and in series [2] were 6.77 and 7.80, respectively. The molecule further gave a pIC50 in the series on MIA PaCa-2 of 5.64.

With `CCN(CC)CCCC(C)Nc1cnc(C(=O)Nc2cccc3cccnc23)cn1` (stereo not given), the pKi is 6.71 in series [1] and 7.66 in series [2]. Besides, the pIC50 with MIA PaCa-2 is 5.43.

On to `Cc1cc(NC(=O)c2cnc(N3CCN(CCN)CC3)cn2)c2ncccc2c1`, for which the figures for the pKi in series [1] and in series [2] were 6.78 and 6.89, respectively. Also, the pIC50 in the series on MIA PaCa-2 was 5.13.

Turning to `CCCNc1cnc(C(=O)Nc2cc(F)cc3cccnc23)cn1`, the negative-log IC50 (pIC50) with MIA PaCa-2 was 5.59.

Consider `CN(C)CCOc1cnc(C(=O)Nc2cc(F)cc3cccnc23)cn1`, for which the pKi in series [1] was 6.95; in series [2] it was 5.87. Besides, the pIC50 in the series with MIA PaCa-2 was 6.22.

Regarding `O=C(Nc1cc(F)cc2cccnc12)c1cnc(NCCN2CCS(=O)(=O)CC2)cn1`, the values for the pKi in series [1] and in series [2] were 5.64 and 5.42, respectively. For the same molecule, the pIC50 in the series on MIA PaCa-2 is below 4.52.

Turning to `CCN(CC)CCCC(C)Nc1cnc(C(=O)Nc2cc(OC)cc3cccnc23)cn1` (stereo not given), the pKi in series [1] is 6.86; in series [2], 7.89. In the series with MIA PaCa-2, this molecule had a pIC50 of 5.64.

As for `CCN(CC)CCCC(C)Nc1cnc(C(=O)Nc2ccc(F)c3cccnc23)cn1` (stereo not given), the values for the pKi in series [1] and in series [2] were 6.67 and 7.74, respectively. The pIC50 with MIA PaCa-2 is 5.52.
